The source of these data is patent US20210379095A1, “Methods and Combination Therapy to Treat Biliary Tract Cancer” (ARRAY BIOPHARMA INC., priority 2018, published 2021).

For experiment [1], the system named is thymidylate synthase (TS). As to the kind of experiment: Western blot of protein expression in BTC cells. It counts as cell-based. The note with it: 48 hours. On the procedure:
The effect of binimetinib, 5-fluorouracil (5-FU), or combination of these drugs on cell viability was evaluated using eight BTC cell lines (SNU245, SNU308, SNU478, SNU869, SNU1079, SNU1196, TFK1, and HuCCT1). As capecitabine is converted to 5-FU in vivo, 5-FU was used as an […] of oral administration of capecitabine in this preclinical study in cell lines. […] Subsequently, cell viability was measured at 540 nm with a Multiskan GO microplate reader using a commercially available MTT assay, according to the manufacturer's directions. The Chou-Talalay method was used to assess a combination effect. […] Actin was included as a loading control.

In experiment [2] the test system is programmed death-ligand 1 (PD-L1). As to the kind of experiment: Western blot of protein expression in BTC cells. The class given is cell-based. The conditions noted are these: 48 hours. Here is the method:
(§1) The effect of binimetinib, 5-fluorouracil (5-FU), or combination of these drugs on cell viability was evaluated using eight BTC cell lines (SNU245, SNU308, SNU478, SNU869, SNU1079, SNU1196, TFK1, and HuCCT1). As capecitabine is converted to 5-FU in vivo, 5-FU was used as an […] of oral administration of capecitabine in this preclinical study in cell lines. In brief, confluent monolayers, which had been grown in 96 well plates, were exposed to drugs for 72 hours. Subsequently, cell viability was measured at 540 nm with a Multiskan GO microplate reader using a commercially available MTT assay, according to the manufacturer's directions. The Chou-Talalay method was used to assess a combination effect. Cells were also treated with drugs for 48 hours and the expression of thymidylate synthase (TS), programmed death-ligand 1 (PD-L1), and β-actin was determined using western blot analysis according to a published protocol. Actin was included as a loading control.

For experiment [3], the system named is BTC cell lines (SNU245, SNU308, SNU478, SNU869, SNU1079, SNU1196, TFK1, and HuCCT1). The experiment is described as follows: MTT cell viability assay. The class given is cell-based. The note with it: eight BTC cell lines, 72 hours exposure. On the procedure:
as §1

Experiment [4] concerns advanced or metastatic BTC. The note with it: binimetinib monotherapy, advanced or metastatic BTC patients; cited from earlier work.

With `O=c1[nH]cc(F)c(=O)[nH]1` [5-FU, 5-fluorouracil], in experiment [1], the “thymidylate synthase (TS) expression” value is “upregulated”. Further, in experiment [2], the PD-L1 expression result is “induced PD-L1 expression”.
As to `Cn1cnc2c(F)c(Nc3ccc(Br)cc3F)c(C(=O)NOCCO)cc21` [binimetinib, 6-(4-bromo-2-fluorophenylamino)-7-fluoro-3-methyl-3H-benzoimidazole-5-carboxylic acid (2-hydroxyethoxy)-amide], the cell viability result in experiment [3] is listed as “significant decreases in cell viability”. Besides, in experiment [1], the “thymidylate synthase (TS) expression” value is recorded as “downregulated”. In experiment [4], the DCR is reported as 51%, the ORR is 8%, the OS is reported as 4.8 months and the PFS is 2.1 months.
